{
  "source": "patent US9857375B2",
  "about": "“Cancer marker and utilization thereof” (PUBLIC UNIVERSITY CORPORATION NARA MEDICAL UNIVERSITY, priority 2012, dated 2018)",
  "key": {"[1]": {"tested_on": "human urothelial cancer cell strain KU7", "test": "TUNEL apoptosis detection after RNA transfection", "type": "cell-based", "conditions": "72 hours of culture after lipofection, versus control RNA", "protocol": "Control RNA (QIAGEN) or ubiquilin 2 siRNA was introduced into human urothelial cancer cell strain KU7 (donated by the School of Urology at the Department of Medicine in Keio University). The ubiquilin 2 siRNA used was siRNA synthesized with 5′-[…]-3′ (SEQ ID NO. 3) of the ubiquilin 2 gene as a Target sequence. The introduction of each RNA was performed by a Lipofection technique with a Lipofectamine™ RNAimax (Life Technologies Japan Ltd.).\nAfter 72 hours of culture of the cells transfected with the RNA, TUNEL positive cells (i.e. cells having undergone apoptosis) were detected under a fluorescence microscope by the TUNEL (Terminal deoxynucleotidyl transferase dUTP nick end labeling) technique, and the percentage of the TUNEL positive cells to the total number of cells was calculated."}, "[2]": {"tested_on": "human urothelial cancer cell strain KU7", "test": "cell survival assay (MTS assay) after addition of thapsigargin", "type": "cell-based", "conditions": "thapsigargin 0.1-2.5 μM, 72 hours after addition", "protocol": "To a culture solution prepared by culturing, for 24 hours, cells transfected with RNA in the same manner as in Example 2, thapsigargin (Sigma Corporation), which is an endoplasmic reticulum stress agent, was added so that predetermined concentrations (0.1 μM, 0.5 μM, 1 μM, and 2.5 μM) were achieved.\nSeventy-two hours after the addition of thapsigargin, a cell survival assay (MTS assay: with use of a kit from Promega KK) was performed to obtain the number of cells that survived, and the ratio (cell survival rate) of the number of cells that survived in the presence of thapsigargin to the number of cells that survived in the absence of thapsigargin was calculated."}},
  "data": [
    {"compound": "ubiquilin 2 siRNA: siRNA synthesized with 5′-TCCCATAAAGAGACCCTAATA-3′ (SEQ ID NO. 3) of the ubiquilin 2 gene as a Target sequence (siRNA sequence not given here, only target site)", "values": [
      {"measurement": "apoptosis (TUNEL positive cells to DAPI positive cells, apoptosis rate)", "setting": "[1]", "result": "apoptosis (death of cells) was induced in the cancer cells"}
    ]},
    {"compound": "C/C=C(/C)C(=O)O[C@H]1C(C)=C2[C@H]([C@@H]1OC(=O)CCCCCCC)[C@@](C)(OC(C)=O)C[C@H](OC(=O)CCC)[C@@]1(O)[C@H]2OC(=O)[C@@]1(C)O", "note": "[thapsigargin]", "values": [
      {"measurement": "cytotoxicity (cell survival rate)", "setting": "[2]; KU7 cells transfected with control RNA (ubiquilin 2 gene not knocked down)", "result": "hardly exhibits cytotoxicity"},
      {"measurement": "cytotoxicity (cell survival rate)", "setting": "[2]; KU7 cells transfected with ubiquilin 2 siRNA (ubiquilin 2 gene knocked down)", "result": "markedly enhanced cytotoxicity"}
    ]}
  ]
}
